Reference: US20100204130A1, “USE OF HUMAN NEUROPEPTIDE AS A THERAPEUTIC AGENT” (priority 2007, published 2010)
Where a SMILES comes first, the peptide text is derived from it.

Tested on: drug-resistant Mycobacterium tuberculosis
Conditions: 5 micrograms per ml

Compound: CC(C)C[C@H](NC(=O)CNC(=O)[C@H](CCC(=O)O)NC(=O)CNC(=O)[C@H](C)N)C(=O)N[C@@H](CC(N)=O)C(=O)N[C@@H](CO)C(=O)N[C@@H](CCC(N)=O)C(=O)N[C@@H](Cc1ccccc1)C(=O)N[C@@H](Cc1c[nH]c2ccccc12)C(=O)N[C@@H](CO)C(=O)N[C@@H](CC(C)C)C(=O)N[C@@H](C)C(=O)N[C@@H](C)C(=O)N1CCC[C@H]1C(=O)N[C@@H](CCC(N)=O)C(=O)N[C@@H](CCCNC(=N)N)C(=O)N[C@@H](Cc1ccccc1)C(N)=O [Neuropeptide AF, Ala-Gly-Glu-Gly-Leu-Asn-Ser-Gln-Phe-Trp-Ser-Leu-Ala-Ala-Pro-Gln-Arg-Phe-NH2] (H-AGEGLNSQFWSLAAPQRF-NH2)
- % inhibition: 0.0%
